Test results from patent US6925388B1, “Heterocyclic nonnucleoside inhibitors of reverse transcriptase” (Parker Hughes Institute, priority 1998, dated 2005).
Read-outs that look alike come from different tables or passages of the source. Each block holds one molecule with its values, some of them ahead of it.

What was measured:
HIV-1 strain HTLVIIIB = test: p24 enzyme immunoassay of HIV replication in HTLVIIIB-infected peripheral blood mononuclear cells; assay type: cell-based
Method: The HIV-1 strain HTLVIIIB (kindly provided by Dr. Neal T. Wetherall, VIROMED Laboratories, Inc.), was propagated in CCRF-CEM cells, and used in in vitro assays of the anti-HIV-1 activity of the synthesized novel derivatives. Cell-free supernatants of HTLVIIIB-infected CCRF-CEM cells were harvested, dispensed into 1 ml aliquots, and frozen at −70° C.
The incubated cells were then exposed to HIV-1 at a multiplicity of infection (MOI) of 0.1 during a one-hour adsorption period at 37° C. in a humidified 5% CO2 atmosphere. […] Aliquots of culture supernatants were removed from the wells on the 7th day after infection for p24 antigen assays. […] Ag.
The applied p24 enzyme immunoassay (EIA) was the unmodified kinetic assay commercially available from Coulter Corporation/Immunotech, Inc. (Westbrooke, Me.). In the assay, a murine monoclonal antibody against HIV core protein is coated onto microwell strips. Antigen (HIV core protein) present in the test culture supernatant samples binds the antibody and the bound antibody-antigen complex is quantitated. Percent viral inhibition was calculated by comparing the p24 values from the test substance-treated infected cells with p24 values from untreated infected cells (i.e., virus controls).

non-infected PBMNC = test: Microculture Tetrazolium Assay (MTA) of cell viability; assay type: cell-based, human; conditions: for IC50: Table 7, concentration decreasing cellular proliferation by 50%
Method: (§1) Ag. […] In brief, non-infected PBMNC were treated with test compounds or controls for 7 days under identical experimental conditions and 2,3-bis(2-methoxy-4-nitro-5-sulfophenyl)-5-[(phenylamino)-carbonyl]-2H-tetrazolium hydroxide ([…]), was added to quantitative cellular proliferation.

[1] = as above; assay type: cell-based, human; conditions: human; for CC50 at 7 days: non-infected PBMNC, Table 4
Method: as §1

[2] = target: recombinant HIV-1 reverse transcriptase (rRT) (Human immunodeficiency virus type 1 group M subtype B, UniProt P04585); test: Quan-T-RT cell-free assay of recombinant HIV-1 reverse transcriptase activity; assay type: biochemical
Method: In addition, the activity of the test compounds to inhibit recombinant HIV-1 reverse transcriptase (rRT) activity was determined using the Quan-T-RT assay system (Amersham, Arlington Heights, Ill.), which utilizes the scintillation proximity assay principle. […] Data for both bioassays is reported as IC50 values.

[3] = Table 7, HIV-infected peripheral blood mononuclear cells, read-out: IC50 [p24]
[4] = Human immunodeficiency virus 1, PBMC, read-out: IC50 [p24]
[5] = Table 4, DABO compounds, purified recombinant HIV RT, read-out: IC50 [rRT]
[6] = Table 5, HIV-infected PBMNC, read-out: IC50 p24
[7] = Table 6, recombinant HIV reverse transcriptase assay, read-out: IC50 rRT
[8] = Human immunodeficiency virus 1, PBMC, HIV-infected human peripheral blood mononuclear cells, read-out: IC50 for inhibition of HIV replication (p24 production)
[9] = Human immunodeficiency virus 1, PBMC, Table 6, read-out: IC50 p24

SMILES: S=C(NCCN1CCNCC1)Nc1ccc(Br)cn1 [III-2, N-[2-(1-piperizinylethyl)]-N′-[2-(5-bromopyridyl)]-thiourea]
IC50 (HIV-1 strain HTLVIIIB; [3]): 2 nM
IC50 (non-infected PBMNC): > 100000 nM

SMILES: CCOCn1c(Cc2ccccc2)c(C(C)C)c(=O)[nH]c1=O [MKC-442, reference compound]
CC50 at 7 days [1]: > 100000 nM

SMILES: S=C(NCCN1CCOCC1)Nc1ccc(Br)cn1 [III-3, N-[2-(1-morpholinylethyl)]-N′-[2-(5-bromopyridyl)]-thiourea]
IC50 (HIV-1 strain HTLVIIIB; [3]): < 1 nM
IC50 (non-infected PBMNC): > 100000 nM

SMILES: CSCSc1nc(Cc2ccccc2)c(C(C)C)c(=O)[nH]1 [Compound 3c, 5-isopropyl-2-[(methylthiomethyl)thio]-benzyl-pyrimidin-4-1H-one]
selectivity index (IC50[MTA]/IC50[p24]) (HIV-1 strain HTLVIIIB): > 100,000
fold more active than AZT and MKC-442 (HIV-1 strain HTLVIIIB; HIV replication): more than 4 fold
IC50 (HIV-1 strain HTLVIIIB; [4]): < 1 nM
IC50 (HIV-1 strain HTLVIIIB; Human immunodeficiency virus 1, PBMC, read-out: IC50 for inhibition of HIV replication (p24 production)): < 1 nM
CC50 at 7 days [1]: > 100000 nM
inhibition of cellular proliferation as measured by MTA (non-infected PBMNC; no detectable cytotoxicity): > 100 µM

SMILES: CSCSc1nc(Cc2cc(C)cc(C)c2)c(C(C)C)c(=O)[nH]1 [Compound 3d, 5-isopropyl-2-[(methylthiomethyl)thio]-6-(3,5-dimethylbenzyl)-pyrimidin-4-1H-one]
IC50 [2, 5]: 4800 nM

SMILES: S=C(NCCN1CCCCC1)Nc1ccc(Br)cn1 [Compound I-3, N-[2-(1-piperidinoethyl)]-N′-[2-(5-bromopyridyl)]-thiourea]
IC50 (HIV-1 strain HTLVIIIB; [6]): < 1 nM

SMILES: S=C(NCCc1cccc(Cl)c1)Nc1ccc(Br)cn1 [II-6, N-[2-(3-chlorophenethyl)]-N′-[2-(5-bromopyridyl)]-thiourea]
IC50 [2, 7]: 3100 nM
melting point: 163 to 165 °C

SMILES: Cc1cn([C@H]2C[C@H](N=[N+]=[N-])[C@@H](CO)O2)c(=O)[nH]c1=O [AZT, reference compound]
IC50 (HIV-1 strain HTLVIIIB; 3 of 3 independent experiments for I-4, read-out: IC50 anti-HIV activity (p24)): 8 nM
IC50 (HIV-1 strain HTLVIIIB; Table 4, HTLVIIIB-infected peripheral blood mononuclear cells, read-out: IC50 [p24]): 40 nM
IC50 (HIV-1 strain HTLVIIIB; Table 6, read-out: IC50 p24): 4 nM
IC50 (HIV-1 strain HTLVIIIB; [3]): 4 nM
IC50 [2, 5]: > 100000 nM
IC50 [2, 7]: > 100000 nM
CC50 (non-infected PBMNC; Table 4): 50000 nM
IC50 (non-infected PBMNC): 50000 nM

melting point: 180 to 183 °C
SMILES: S=C(NCCc1ccc(Cl)cc1)Nc1ccc(Br)cn1 [II-9, N-[2-(4-chlorophenethyl)]-N′-[2-(5-bromopyridyl)]-thiourea]

IC50 (HIV-1 strain HTLVIIIB; [8]): 15 nM
IC50 (HIV-1 strain HTLVIIIB; [9]): 15 nM
melting point: 178 to 179 °C
SMILES: COc1ccc(CCNC(=S)Nc2ccc(Br)cn2)cc1 [II-7, N-[2-(4-methoxyphenethyl)]-N′-[2-(5-bromopyridyl)]-thiourea]

SMILES: COc1ccccc1CCNC(=S)Nc1ccc(Br)cn1 [II-1, N-[2-(2-methoxyphenethyl)]-N′-[2-(5-bromopyridyl)]-thiourea]
IC50 (HIV-1 strain HTLVIIIB; [9]): 10 nM
IC50 [2]: 1000 nM
melting point: 143 to 145 °C

SMILES: CSCSc1nc(Cc2ccccc2)c(C)c(=O)[nH]1 [Compound 3a, 5-methyl-2-[(methylthiomethyl)thio]-6-benzyl-pyrimidin-4-1H-one]
IC50 (HIV-1 strain HTLVIIIB; [4]): 4500 nM
IC50 [2, 5]: 18800 nM
CC50 at 7 days [1]: > 100000 nM

SMILES: Fc1cccc(CCNC(=S)Nc2ccc(Br)cn2)c1 [II-5, N-[2-(3-fluorophenethyl)]-N′-[2-(5-bromopyridyl)]-thiourea]
IC50 (HIV-1 strain HTLVIIIB; [8]): < 1 nM
IC50 (HIV-1 strain HTLVIIIB; [9]): < 1 nM
IC50 [2]: 700 nM
melting point: 171 to 172 °C

IC50 (HIV-1 strain HTLVIIIB; [4]): 7 nM
IC50 (HIV-1 strain HTLVIIIB; Human immunodeficiency virus 1, PBMC, read-out: IC50 anti-HIV activity (p24)): 7 nM
IC50 (HIV-1 strain HTLVIIIB; Human immunodeficiency virus 1, PBMC, read-out: IC50 p24): 7 nM
SMILES: S=C(NCCc1ccccn1)Nc1ccc(Br)cn1 [Trovirdine, reference compound]
IC50 at 7 days ([1]; Table 7, concentration decreasing cellular proliferation by 50%): > 100000 nM

SMILES: Fc1ccccc1CCNC(=S)Nc1ccc(Br)cn1 [II-2, N-[2-(2-fluorophenethyl)]-N′-[2-(5-bromopyridyl)]-thiourea]
IC50 (HIV-1 strain HTLVIIIB; [8]): < 1 nM
IC50 (HIV-1 strain HTLVIIIB; [9]): < 1 nM
IC50 [2]: 600 nM
melting point: 156 to 157 °C

SMILES: S=C(NCCc1ccccc1Cl)Nc1ccc(Br)cn1 [II-3, N-[2-(2-chlorophenethyl)]-N′-[2-(5-bromopyridyl)]-thiourea]
IC50 (HIV-1 strain HTLVIIIB; [8]): < 1 nM
IC50 (HIV-1 strain HTLVIIIB; [9]): < 1 nM
IC50 [2]: 700 nM
melting point: 137 to 139 °C

SMILES: COc1ccc(OC)c(CCNC(=S)Nc2ccc(Br)cn2)c1 [Compound I-4, N-[2-(2,5-dimethoxyphenylethyl)]-N′-[2-(5-bromopyridyl)]-thiourea]
IC50 (HIV-1 strain HTLVIIIB; Human immunodeficiency virus 1, PBMC, 3 of 3 independent experiments for I-4, read-out: IC50 anti-HIV activity (p24)): < 1 nM
IC50 (HIV-1 strain HTLVIIIB; Human immunodeficiency virus 1, PBMC, Table 5, HIV-infected PBMNC, read-out: IC50 p24): < 1 nM
times more potent than trovirdine against recombinant HIV RT [2]: 8
melting point: 133 to 138 °C

SMILES: CCc1c(Cc2ccccc2)nc(SCSC)[nH]c1=O [Compound 3b, 5-ethyl-2-[(methylthiomethyl)thio]-6-benzyl-pyrimidin-4-1H-one]
IC50 (HIV-1 strain HTLVIIIB; [4]): 800 nM
IC50 [2, 5]: 9700 nM
CC50 at 7 days [1]: > 100000 nM

SMILES: COc1cccc(CCNC(=S)Nc2ccc(Br)cn2)c1 [II-4, N-[2-(3-metboxyphenethyl)]-N′-[2-(5-bromopyridyl)]-thiourea]
selectivity index (IC50[MTA]/IC50[p24]) (HIV-1 strain HTLVIIIB): > 3×10^4
IC50 (HIV-1 strain HTLVIIIB; [8]): 3 nM
IC50 (HIV-1 strain HTLVIIIB; [9]): 3 nM
IC50 [2]: 400 nM
times more potent than trovirdine against recombinant HIV RT [2]: approximately 2
melting point: 155 to 156 °C

SMILES: S=C(NCCc1ccccn1)Nc1ccccn1 [Compound I-1, N-[2-(2-pyridylethyl)]-N′-[2-(pyridyl)]-thiourea]
IC50 (HIV-1 strain HTLVIIIB; [6]): 230 nM

SMILES: Fc1ccc(CCNC(=S)Nc2ccc(Br)cn2)cc1 [II-8, N-[2-(4-fluorophenethyl)]-N′-[2-(5-bromopyridyl)]-thiourea]
fold less active than meta and ortho F compounds (IC50[rRT]) [2]: 10 fold
IC50 [2, 7]: 6400 nM
melting point: 177 to 178 °C

SMILES: S=C(NCCN1CCCCC1)Nc1ccc(Br)cn1 [III-1, N-[2-(1-piperidinylethyl)]-N′-[2-(5-bromopyridyl)]-thiourea]
IC50 (HIV-1 strain HTLVIIIB; [3]): < 1 nM
IC50 (non-infected PBMNC): > 100000 nM
